Reference: ChEMBL document CHEMBL3244006, “Synthesis and antinociceptive activity of 7-methoxycodeine” (J Med Chem, 1978)
Activity calls are given as the source filed them. No cut-off for these calls is given here.

Columns and labels:
Mus musculus [1] = test: Antinociceptive activity in sc dosed mouse by Eddy hot-plate assay; type: functional
Mus musculus [2] = test: Antinociceptive activity in mouse at 100 mg/kg, po by Eddy hot-plate assay; type: functional, organism-based; set-up: dose 100 mg/kg
Mus musculus [3] = test: Antinociceptive activity in mouse at 100 mg/kg, sc by Eddy hot-plate assay; type: functional, organism-based; set-up: dose 100 mg/kg
Mus musculus [4] = test: Antinociceptive activity in po dosed mouse by Eddy hot-plate assay; type: functional
[5] = Stability of the compound in acidic media; type: physicochemical

| SMILES | ED50 (Mus musculus [1]) | ED50 (Mus musculus [4]) | also measured |
| --- | --- | --- | --- |
| COc1ccc2c(c1O)[C@]13CCN(C)[C@H](C2)[C@@H]1CC(=O)C(=O)C3 | 26.7 µmol/kg |  | Activity (Mus musculus [2]): inactive |
| COC1=C[C@H]2[C@H]3Cc4c(Br)cc(OC)c(O)c4[C@@]2(CCN3C)CC1=O |  |  | Activity (Mus musculus [3]): inactive |
| COC1=C[C@H]2[C@H]3Cc4ccc(OC)c5c4[C@@]2(CCN3C)[C@@H](O5)[C@H]1O | 43.1 µmol/kg | 30.4 µmol/kg | Stability [5]: Unstable |
| CN1CC[C@]23c4c5ccc(O)c4O[C@H]2[C@@H](O)C=C[C@H]3[C@H]1C5 | 3.3 µmol/kg | 18.8 µmol/kg |  |
| COC1=C[C@]23CCN(C)[C@H](Cc4c(Br)cc(OC)c(O)c42)[C@@H]3CC1=O |  |  | Activity (Mus musculus [3]): inactive |
| COC1=C[C@H]2[C@H]3Cc4c(Br)cc(OC)c5c4[C@@]2(CCN3C)[C@@H](O5)C1=O | 40.4 µmol/kg |  |  |
| COc1ccc2c3c1O[C@H]1[C@@H](O)C=C[C@H]4[C@@H](C2)N(C)CC[C@@]341 [CODEINE PHOSPHATE] |  | 34 µmol/kg |  |
